The results in this text go back to PubChem BioAssay (NCI).

What all share (assay): NCI anticancer screen, dose series, 48 h
Experiment [1] relates to IGROV1 ovarian.
Experiment [2] concerns DLD-1 colon.
In experiment [3] the test system is DMS 273 small cell lung.
Experiment [4] has as its system CAKI-1 renal.
For experiment [5], the system named is UACC-62 melanoma.
The subject of experiment [6] is OVCAR-5 ovarian.
The subject of experiment [7] is HOP-18 NSCLC.
For experiment [8], the system named is DMS 114 small cell lung.
Experiment [9] has as its system LXFL 529 NSCLC.
Experiment [10] concerns SNB-78 CNS.
Experiment [11] has as its system KM20L2 colon.
The subject of experiment [12] is 786-0 renal.
In experiment [13] the test system is SR leukemia.

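Five compound concentrations were applied to cells in 96-well plates for 48 hours; endpoints were derived by simple linear interpolation of the resulting dose-response curve. TGI denotes the concentration required for complete inhibition of growth.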

Turning to `C\C=C/C=C/C=C/C(=O)O`, the TGI in experiment [1], in [2], in experiment [3], in experiment [4], in experiment [5] and in experiment [6] was > 100 µM throughout. Also, the TGI in [7], in [8], in [9], in experiment [10], in experiment [11] and in experiment [12] was > 100 µM each time.

For `COc1ccc2c(c1)c(=O)c1c(NCCCN(C)CCCNc3ccc4c(=O)n(CCN(C)C)c(=O)n5c6ccc(OC)cc6c(=O)c3c45)ccc3c(=O)n(CCN(C)C)c(=O)n2c31`, the TGI in [1] is 0.584 µM; in experiment [13] it was 0.255 µM; in experiment [4] it was 0.784 µM; in experiment [5], 0.956 µM; in [6], 3.63 µM; in [12], 1.48 µM.

`COc1ccc2c(c1)C1Oc3ccccc3CC1(O)CO2` (centres undefined): the TGI in experiment [1], in [13], in experiment [4], in experiment [5], in experiment [6] and in experiment [12] was > 100 µM in each case.

In the case of `Cc1ccc(S(=O)(=O)Nc2nc3ccccc3c(=O)n2C2CCCCC2)cc1`, the TGI in [1], in experiment [13], in experiment [4], in experiment [5], in experiment [6] and in [12] was > 100 µM in each case.

On to `COc1cc(CCNC2=CC(=O)c3cccnc3C2=O)ccc1O`, for which the TGI in experiment [1] came out at 4.3 µM; in [13] it was 12.2 µM; in [4], 5.04 µM; in experiment [5], 2.7 µM; in experiment [6], 2.99 µM; in experiment [12], 3.67 µM.

`COC(=O)c1ccc(CCC2=CC(=O)C(Br)=CC2=O)cc1`: the TGI in experiment [1] was 28.7 µM; in experiment [13], > 100 µM; in experiment [4] it was 26.4 µM; in experiment [5], 31.7 µM; in experiment [6], 33.6 µM; in experiment [12], 35.2 µM.

As for `O=c1[nH]nc(-c2ccc([N+](=O)[O-])cc2)n1/N=C/c1ccc([N+](=O)[O-])cc1`, the TGI in experiment [1], in experiment [13], in experiment [4], in experiment [5], in experiment [6] and in [12] was > 100 µM throughout.

In the case of `NNC(=Nc1ccccc1)SCc1ccccc1`, the TGI in experiment [1], in experiment [13], in experiment [4], in experiment [5], in experiment [6] and in experiment [12] was > 100 µM throughout.

As for `Cc1c(C)c2c(c(N)c1C#N)C(=O)N(OS(=O)(=O)c1ccccc1)C2=O`, the TGI in experiment [1] is 37.7 µM; in experiment [13], > 100 µM; in [4], 51 µM; in experiment [5] it was 61.4 µM; in experiment [6], > 100 µM; in [12], 30.3 µM.

On to `Cc1c(C#N)c2nnn(-c3ccc([N+](=O)[O-])cc3)c(=O)n2c1-c1ccccc1`, for which the TGI in experiment [1] came out at 33.6 µM; in experiment [13], 46.3 µM; in experiment [4] it was 52.2 µM; in [5] it was 19.4 µM; in [6], 40.1 µM; in [12], 26.6 µM.

As to `CC(/C=N/N(C)C1=NCCCCN1)=N/N(C)C1=NCCCCN1`, the TGI in experiment [1], in experiment [13], in experiment [4], in experiment [5], in experiment [6] and in experiment [12] was > 100 µM each time.

Turning to `O=C1OC(C2Cc3ccccc3C2=O)c2ccccc21` (centres undefined), the TGI in [1], in experiment [13], in experiment [4], in [5], in experiment [6] and in experiment [12] was > 100 µM in each case.

As for `Cc1ccc(C(=O)Cc2nc3ncccc3[nH]c2=O)cc1`, the TGI in experiment [1] is > 100 µM; in [13] it was > 100 µM; in experiment [4], > 100 µM; in [5] it was > 100 µM; in [6], > 100 µM; in experiment [12], 45.3 µM.
